Consider 21 compounds from patent US12637425B2, “Compounds and formulations for treating ophthalmic diseases” (Visus Therapeutics, Inc., priority 2020, dated 2026).

In the assay the target is T1, Recombinant cryAB(R120G) protein (Homo sapiens, UniProt P02511, R120G).
T1 sequence (P02511 1-175 R120G): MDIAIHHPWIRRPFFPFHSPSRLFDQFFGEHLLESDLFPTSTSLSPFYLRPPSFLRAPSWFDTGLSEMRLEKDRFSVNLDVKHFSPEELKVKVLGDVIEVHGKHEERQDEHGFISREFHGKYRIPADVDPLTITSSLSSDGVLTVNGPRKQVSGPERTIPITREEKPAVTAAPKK
Kind of assay: Kinetic turbidity aggregation assay of recombinant cryAB(R120G). The assay is classed as biochemical. Particulars: for inhibition at 25 µM: 25 μM compound, read-out: % Inhibition of Protein Aggregation, 25 μM cmpd; for inhibition at 25 µM / inhibition at 100 µM / inhibition at 400 µM: 15 μM cryAB(R120G), 42° C., absorbance at 550 nm; for inhibition at 100 µM: 100 μM compound, read-out: % Inhibition of Protein Aggregation, 100 μM cmpd; for IC50: inhibition of cryAB(R120G) protein aggregation; for inhibition at 400 µM: 400 μM compound, read-out: % Inhibition of Protein Aggregation, 400 μM cmpd. The protocol: Example A-1: Kinetic Turbidity Aggregation Assay of Recombinant cryAB(R120)
Recombinant cryAB(R120G) protein was diluted to 100 μM in assay buffer (50 mM Tris, 100 mM NaCl, 5 mM DTT, 0.01% Triton X-100, 0.05% PEG-8000). Compounds were dissolved in DMSO at 10 mM then typically diluted to 2.5 mM in DMSO and serially diluted 2-fold as necessary. To a 384-well black microplate in quadruplicate was added 81 μL assay buffer, followed by 15 μL protein solution, and 4 μL compound to give a final concentration of 15 μM cryAB(R120G) protein in 4% DMSO. […] N.D. is not determined.

Each structure is given as a SMILES string.

Take `C[C@H]1CCCN1C(CNS(=O)(=O)c1ccc2cc[nH]c2c1)c1cn(C)c2ccccc12` (some centres unmarked) [Compound 48]: the inhibition (commonly the relative decrease from the control value, in per cent) at 25 µM is 23% and the inhibition at 100 µM was determined as 76.9%.
For `CN(C)C(CNS(=O)(=O)c1ccc2cc[nH]c2c1)c1cccc2cccnc12` (centres unmarked) [Compound 57, N-(2-(dimethylamino)-2-(quinolin-8-yl)ethyl)-1H-indole-6-sulfonamide] the same measures were 25% and 82.4%.
Taken in the same sequence, the figures for `Cn1cc(C(CNS(=O)(=O)c2ccc3cc[nH]c3c2)N2CCC(C)(C)C2)c2ccccc21` (centres unmarked) [Compound 52, N-(2-(3,3-dimethylpyrrolidin-1-yl)-2-(1-methyl-1H-indol-3-yl)ethyl)-1H-indole-6-sulfonamide] were 62% and 96.2%.
For `Cn1cc(C(CNS(=O)(=O)c2ccc3cc[nH]c3c2)N2CC[C@@H](O)C2)c2ccccc21` (stereo partly drawn) [Compound 44, N-(2-((R)-3-hydroxypyrrolidin-1-yl)-2-(1-methyl-1H-indol-3-yl)ethyl)-1H-indole-6-sulfonamide], the inhibition at 25 µM was 82%; the inhibition at 100 µM came to 99.7%; the IC50 (as a rule, the midpoint of a concentration-inhibition curve) was not above 10 µM.
Take `COc1cc2cc[nH]c2cc1S(=O)(=O)NCC(c1cn(C)c2ccccc12)N(C)C` (centres unmarked) [Compound 96, N-(2-(dimethylamino)-2-(1-methyl-1H-indol-3-yl)ethyl)-5-methoxy-1H-indole-6-sulfonamide]: the inhibition at 25 µM was determined as 60% and the inhibition at 100 µM turned out to be 58.8%.
For `Cn1nc([C@H](CNS(=O)(=O)c2ccc3cc[nH]c3c2)N2CCC2)c2ccccc21` [Compound 99, (S)-N-(2-(azetidin-1-yl)-2-(1-methyl-1H-indazol-3-yl)ethyl)-1H-indole-6-sulfonamide] the same measures were -56% and 21.3%.
`C[C@@H]1CCN([C@H](CNS(=O)(=O)c2ccc3cc[nH]c3c2)c2cn(C)c3ccccc23)C1` [Compound 76, N-((S)-2-(1-methyl-1H-indol-3-yl)-2-((R)-3-methylpyrrolidin-1-yl)ethyl)-1H-indole-6-sulfonamide]: the inhibition at 25 µM came out at 28% and the inhibition at 100 µM came to 85.1%.
As for `CNC(CNS(=O)(=O)c1ccc2cc[nH]c2c1)c1cn(C)c2ccccc12` (centres unmarked) [Compound 88, N-(2-(1-methyl-1H-indol-3-yl)-2-(methylamino)ethyl)-1H-indole-6-sulfonamide], the inhibition at 25 µM came to 21% and the inhibition at 100 µM was 94.3%.
Take `CN(C)C(CNS(=O)(=O)c1ccc2cc[nH]c2c1)c1nn(C)c2ccccc12` (centres unmarked) [Compound 19, N-(2-(dimethylamino)-2-(1-methyl-1H-indazol-3-yl)ethyl)-1H-indole-6-sulfonamide]: the inhibition at 25 µM is 34%, the inhibition at 100 µM was determined as 81.5%, the inhibition at 400 µM was found to be 99.9% and the IC50 lay in the range of 10 to 50 µM.
With `C[C@@H]1CCCN1[C@H](CNS(=O)(=O)c1ccc2cc[nH]c2c1)c1cn(C)c2ccccc12` [Compound 53, N-((S)-2-(1-methyl-1H-indol-3-yl)-2-((R)-2-methylpyrrolidin-1-yl)ethyl)-1H-indole-6-sulfonamide], the inhibition at 25 µM came to 99.6%, the inhibition at 100 µM is 99.9% and the half-maximal inhibitory concentration (IC50) is not above 10 µM.
For `Cn1cc(C(CNS(=O)(=O)c2ccc3cc[nH]c3c2)N2CCCCC2)c2ccccc21` (centres unmarked) [Compound 29, N-(2-(1-methyl-1H-indol-3-yl)-2-(piperidin-1-yl)ethyl)-1H-indole-6-sulfonamide] the same measures were 69%, 99.9% and 10 to 50 µM.
For the compound `CO[C@@H]1CCN([C@@H](CNS(=O)(=O)c2ccc3cc[nH]c3c2)c2cn(C)c3ccccc23)C1` [Compound 75, N-((R)-2-((R)-3-methoxypyrrolidin-1-yl)-2-(1-methyl-1H-indol-3-yl)ethyl)-1H-indole-6-sulfonamide], the inhibition at 25 µM is -10% and the inhibition at 100 µM came to 99.2%.
For `CN(Cc1cncs1)[C@H](CNS(=O)(=O)c1ccc2cc[nH]c2c1)c1cn(C)c2ccccc12` [Compound 86, (S)-N-(2-(methyl(thiazol-5-ylmethyl)amino)-2-(1-methyl-1H-indol-3-yl)ethyl)-1H-indole-6-sulfonamide] the same measures were 80% and 94.1%.
In the case of `CC(C)n1cc(C(CNS(=O)(=O)c2ccc3[nH]ccc3c2)N(C)C)c2ccccc21` (centres unmarked) [Compound 12, N-(2-(dimethylamino)-2-(1-isopropyl-1H-indol-3-yl)ethyl)-1H-indole-5-sulfonamide], the inhibition at 25 µM amounted to 30%, the inhibition at 100 µM stood at 87.1% and the inhibition at 400 µM was 96.1%.
In the case of `Cn1cc([C@H](CNS(=O)(=O)c2ccc3cc[nH]c3c2)N2CCCC2)c2ccncc21` [Compound 83, (R)-N-(2-(1-methyl-1H-pyrrolo[2,3-c]pyridin-3-yl)-2-(pyrrolidin-1-yl)ethyl)-1H-indole-6-sulfonamide], the inhibition at 25 µM is 1% and the inhibition at 100 µM was found to be 26%.
Regarding `CCN(CC)C(CNS(=O)(=O)c1ccc2cc[nH]c2c1)c1cn(C)c2ccccc12` (centres unmarked) [Compound 38, N-(2-(diethylamino)-2-(1-methyl-1H-indol-3-yl)ethyl)-1H-indole-6-sulfonamide], the inhibition at 25 µM was determined as 57%, the inhibition at 100 µM turned out to be 99.8% and the 50% inhibitory concentration (IC50) is 10 to 50 µM.
As for `Cn1cc(C(CNS(=O)(=O)c2ccc3cc[nH]c3c2)Nc2ccccc2)c2ccccc21` (centres unmarked) [Compound 51, N-(2-(1-methyl-1H-indol-3-yl)-2-(phenylamino)ethyl)-1H-indole-6-sulfonamide], the inhibition at 25 µM was 46% and the inhibition at 100 µM stood at 80.4%.
Taken in the same sequence, the figures for `CCn1nc([C@H](CNS(=O)(=O)c2ccc3cc[nH]c3c2)N2CCC2)c2ccccc21` [Compound 95, (S)-N-(2-(azetidin-1-yl)-2-(1-ethyl-1H-indazol-3-yl)ethyl)-1H-indole-6-sulfonamide] were 14% and 56.2%.
On to `C[C@@H]1CCCN1[C@@H](CNS(=O)(=O)c1ccc2cc[nH]c2c1)c1cn(C)c2ccccc12` [Compound 55, N-((R)-2-(1-methyl-1H-indol-3-yl)-2-((R)-2-methylpyrrolidin-1-yl)ethyl)-1H-indole-6-sulfonamide], for which the inhibition at 25 µM turned out to be 33%, the inhibition at 100 µM was 99.6% and the IC50 is 50 to 100 µM.
Turning to `Cn1cc([C@@H](CNS(=O)(=O)c2ccc3cc[nH]c3c2)N2CC[C@@H](c3ccccc3)C2)c2ccccc21` [Compound 58, N-((S)-2-(1-methyl-1H-indol-3-yl)-2-((S)-3-phenylpyrrolidin-1-yl)ethyl)-1H-indole-6-sulfonamide], the inhibition at 25 µM is -8% and the inhibition at 100 µM was determined as 66.7%.
In the case of `Cn1cc(C(CNS(=O)(=O)c2ccc3cc[nH]c3c2)N2C[C@H]3COC[C@H]3C2)c2ccccc21` (stereo in doubt) [Compound 31, N-(2-(1-methyl-1H-indol-3-yl)-2-(trans-tetrahydro-1H-furo[3,4-c]pyrrol-5(3H)-yl)ethyl)-1H-indole-6-sulfonamide], the inhibition at 25 µM was 23% and the inhibition at 100 µM worked out at 70%.
